Experimental data taken from PubChem BioAssay AID1918946 (Molecular Pharmacology Branch, DTP, NCI, 2023).

Test system: 885512-296-R-J2-PDC complex spheroid viability
Test: Anticancer human tumor 885512-296-R-J2-PDC patient-derived breast carcinoma cell line growth inhibition
Details: for IC50: curve of first compound; for viability, T/C: stronger effect = lower value
Text: Multicellular complex tumor spheroid response to LSD1 Inhibitor Iadademstat in combination with a variety of drugs and investigational agents in selected tumor cell lines
The current study was undertaken to assess response to LSD1 inhibitors in combination with standard-of-care drugs and investigational agents in solid tumor complex spheroid models as well as in the K-562 leukemia. Complex spheroids include a stromal component modeled by human endothelial cells (HUVEC) and fibroblasts modeled by human mesenchymal stem cells (MSCs). The concentration ranges selected for each drug and investigational agent were based upon clinically achievable concentrations if the clinical Cmax of the agent was known.
Compounds. The drugs and investigational agents used in this study are listed on Table 1. All of the agents used, including staurosporine (NSC755774) and gemcitabine (NSC613327), were obtained from the Developmental Therapeutics Program, NCI. FDA-approved anticancer drugs are available from the NCI at http://dtp.nci.nih.gov/branches/dscb/oncology_drugset_explanation.html. Drugs and investigational agents were >95% pure by proton nuclear magnetic resonance (NMR) and liquid chromatography/mass spectrometry (LC/MS). Stock solutions were prepared at 400x in DMSO, stored at -70 degrees C, and diluted in fresh medium prior to their use. The final concentration of DMSO in cell culture wells never exceeded 0.25% (v/v). The FDA-approved anticancer drug set is available from the Developmental Therapeutics Program at https://dtp.cancer.gov/organization/dscb/obtaining/available_plates.htm. All drugs and investigational agents were tested over a range starting from a high concentration at or near the clinical Cmax and decreasing in half-log increments. If the clinical Cmax for an agent had not been determined, the highest concentration tested was 10 microM.
Cell Lines. The patient-derived cancer cell (PDC) lines: 292921-168-R-J2-PDC, K24384-001-R-PDC, and 521955-158-R2-J5-PDC pancreatic carcinomas, 556581-035-R-J1 ovarian carcinoma, 324938-238-R-J1-PDC, 855422-203-R-J1-PDC and 883617-216-R-J1-PDC urothelial bladder carcinomas, 743489-274-T-PDC renal cell carcinoma, 138582-R-J1 Merkel cell tumor, K60290-347-R-J1 and K57222-313-R-J1-PDC glioblastomas, 653999-131-R-J2-PDC, LG0703-F948-PDC, and 349418-098-R-PDC non-small cell lung carcinomas, 885512-296-R-J2-PDC, 171881-019-R-J1-PDC breast carcinomas and 186277-243-T-J2-PDC and 233499-124-R-J2-PDC colon carcinomas were obtained from the NCI Patient-Derived Models Repository (PDMR, https://pdmr.cancer.gov). The established cell lines NCI/ADR-RES (RRID:CVCL_14520 and OVCAR-5 (RRID:CVCL_1628) ovarian carcinomas, 786-O (RRID:CVCL_1051) and A498 (RRID:CVCL_A498) renal cell carcinoma, NCI-H211 (ATCC, cat. CRL-5824; RRID:CVCL_1529), NCI-H196 (ATCC, cat. CRL-5823, RRID:CVCL_1509), SW 1271 (ATCC, cat. CRL-2177, RRID:CVCL_1716) and NCI-H1876 (ATCC, cat. CRL-5902, RRID:CVCL_1503) small cell lung carcinomas, MDA-MB-231 (RRID:CVCL_0062) and MDA-MB-468 (RRID:CVCL_0419)breast carcinomas (10-12). Pooled donor human umbilical vein endothelial cells (HUVEC, Lonza, cat. CC-2519) and human mesenchymal stem cells (hMSC, Lonza, cat. PT-2501) were purchased from Lonza (Walkersville, MD).
Cell Culture. All cells were maintained in an incubator at 37 degrees C and 5% CO2 with 95% humidity. The PDC lines were cultured according to standard operating procedures established by the NCI PDMR (https://pdmr.cancer.gov). Briefly all PDCs were thawed and cultured in Matrigel-coated flasks prepared with a working solution of 1X Ham's F-12 nutrient mix, without supplementation (Invitrogen, Waltham, MA, cat. 11765054), 100 U/mL penicillin-streptomycin (Invitrogen, cat. 15140122), and 2.5% Matrigel (Corning Inc., Corning, NY, cat. 354248) for the first three passages. […]
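Also: spheroids exposed to agents for 7 days before viability read.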

**Q.** For `CC[C@@]1(O)C(=O)OCc2c1cc1n(c2=O)Cc2cc3c(CN(C)C)c(O)ccc3nc2-1` + NC1CC1c1ccc(-c2cccc(O)c2)cc1, which IC50 (second compound 0.1 µM) is on record?
**A.** 0.93 nM

**Q.** And the IC50 (second compound 0.316 µM)?
**A.** 1.06 nM

**Q.** And the IC50 (second compound 1 µM)?
**A.** 0.805 nM

**Q.** And the IC50 (second compound 3.16 µM)?
**A.** 0.791 nM

**Q.** What about the IC50 (second compound 10 µM) of the same compound?
**A.** 0.592 nM

**Q.** What about the viability, T/C (second compound 0.1 µM, first compound 0.000316 µM) of the same compound?
**A.** 92.2%

**Q.** And the viability, T/C (second compound 0.1 µM, first compound 0.001 µM)?
**A.** 47.2%

**Q.** What about the viability, T/C (second compound 0.1 µM, first compound 0.00316 µM) of the same compound?
**A.** 4.42%

**Q.** What about the viability, T/C (second compound 0.1 µM, first compound 0.01 µM) of the same compound?
**A.** 3.26%

**Q.** And the viability, T/C (second compound 0.1 µM, first compound 0.0316 µM)?
**A.** 2.54%

**Q.** And the viability, T/C (second compound 0.1 µM, first compound 0.1 µM)?
**A.** 1.68%

**Q.** And the viability, T/C (second compound 0.316 µM, first compound 0.000316 µM)?
**A.** 97.2%

**Q.** And the viability, T/C (second compound 0.316 µM, first compound 0.001 µM)?
**A.** 52.5%

**Q.** And the viability, T/C (second compound 0.316 µM, first compound 0.00316 µM)?
**A.** 4.34%

**Q.** What about the viability, T/C (second compound 0.316 µM, first compound 0.01 µM) of the same compound?
**A.** 2.93%

**Q.** And the viability, T/C (second compound 0.316 µM, first compound 0.0316 µM)?
**A.** 1.9%

**Q.** What about the viability, T/C (second compound 0.316 µM, first compound 0.1 µM) of the same compound?
**A.** 1.67%

**Q.** What about the viability, T/C (second compound 1 µM, first compound 0.000316 µM) of the same compound?
**A.** 92.2%

**Q.** And the viability, T/C (second compound 1 µM, first compound 0.001 µM)?
**A.** 40.2%

**Q.** And the viability, T/C (second compound 1 µM, first compound 0.00316 µM)?
**A.** 5.01%

**Q.** And the viability, T/C (second compound 1 µM, first compound 0.01 µM)?
**A.** 3.22%

**Q.** And the viability, T/C (second compound 1 µM, first compound 0.0316 µM)?
**A.** 2.56%

**Q.** What about the viability, T/C (second compound 1 µM, first compound 0.1 µM) of the same compound?
**A.** 1.7%

**Q.** And the viability, T/C (second compound 3.16 µM, first compound 0.000316 µM)?
**A.** 91.8%

**Q.** And the viability, T/C (second compound 3.16 µM, first compound 0.001 µM)?
**A.** 39.3%

**Q.** And the viability, T/C (second compound 3.16 µM, first compound 0.00316 µM)?
**A.** 4.57%

**Q.** And the viability, T/C (second compound 3.16 µM, first compound 0.01 µM)?
**A.** 2.89%

**Q.** And the viability, T/C (second compound 3.16 µM, first compound 0.0316 µM)?
**A.** 1.84%

**Q.** And the viability, T/C (second compound 3.16 µM, first compound 0.1 µM)?
**A.** 1.56%

**Q.** What about the viability, T/C (second compound 10 µM, first compound 0.000316 µM) of the same compound?
**A.** 72.7%

**Q.** And the viability, T/C (second compound 10 µM, first compound 0.001 µM)?
**A.** 31.1%

**Q.** And the viability, T/C (second compound 10 µM, first compound 0.00316 µM)?
**A.** 3.84%

**Q.** And the viability, T/C (second compound 10 µM, first compound 0.01 µM)?
**A.** 3.11%

**Q.** What about the viability, T/C (second compound 10 µM, first compound 0.0316 µM) of the same compound?
**A.** 2.42%

**Q.** What about the viability, T/C (second compound 10 µM, first compound 0.1 µM) of the same compound?
**A.** 1.6%

**Q.** For `Nc1ccn(C2OC(CO)C(O)C2(F)F)c(=O)n1` (stereo not given) + NC1CC1c1ccc(-c2cccc(O)c2)cc1, which IC50 (second compound 0.1 µM) is on record?
**A.** < 0.949 nM

**Q.** What about the IC50 (second compound 0.316 µM) of the same compound?
**A.** < 0.949 nM

**Q.** What about the IC50 (second compound 1 µM) of the same compound?
**A.** < 0.949 nM

**Q.** What about the IC50 (second compound 3.16 µM) of the same compound?
**A.** < 0.949 nM

**Q.** And the IC50 (second compound 10 µM)?
**A.** < 0.949 nM

**Q.** And the viability, T/C (second compound 0.1 µM, first compound 0.000949 µM)?
**A.** 13.8%

**Q.** What about the viability, T/C (second compound 0.1 µM, first compound 0.003 µM) of the same compound?
**A.** 2.18%

**Q.** And the viability, T/C (second compound 0.1 µM, first compound 0.00949 µM)?
**A.** 2%

**Q.** What about the viability, T/C (second compound 0.1 µM, first compound 0.03 µM) of the same compound?
**A.** 2.39%

**Q.** And the viability, T/C (second compound 0.1 µM, first compound 0.0949 µM)?
**A.** 2.84%

**Q.** What about the viability, T/C (second compound 0.1 µM, first compound 0.3 µM) of the same compound?
**A.** 2.16%

**Q.** And the viability, T/C (second compound 0.316 µM, first compound 0.000949 µM)?
**A.** 17.7%

**Q.** And the viability, T/C (second compound 0.316 µM, first compound 0.003 µM)?
**A.** 2.09%

**Q.** What about the viability, T/C (second compound 0.316 µM, first compound 0.00949 µM) of the same compound?
**A.** 1.82%

**Q.** What about the viability, T/C (second compound 0.316 µM, first compound 0.03 µM) of the same compound?
**A.** 2.16%

**Q.** And the viability, T/C (second compound 0.316 µM, first compound 0.0949 µM)?
**A.** 2.14%

**Q.** And the viability, T/C (second compound 0.316 µM, first compound 0.3 µM)?
**A.** 2.23%

**Q.** What about the viability, T/C (second compound 1 µM, first compound 0.000949 µM) of the same compound?
**A.** 12.1%

**Q.** What about the viability, T/C (second compound 1 µM, first compound 0.003 µM) of the same compound?
**A.** 2.01%

**Q.** And the viability, T/C (second compound 1 µM, first compound 0.00949 µM)?
**A.** 2.01%

**Q.** What about the viability, T/C (second compound 1 µM, first compound 0.03 µM) of the same compound?
**A.** 2.18%

**Q.** And the viability, T/C (second compound 1 µM, first compound 0.0949 µM)?
**A.** 2.05%

**Q.** What about the viability, T/C (second compound 1 µM, first compound 0.3 µM) of the same compound?
**A.** 2.5%

**Q.** And the viability, T/C (second compound 3.16 µM, first compound 0.000949 µM)?
**A.** 15.3%

**Q.** And the viability, T/C (second compound 3.16 µM, first compound 0.003 µM)?
**A.** 2.08%

**Q.** What about the viability, T/C (second compound 3.16 µM, first compound 0.00949 µM) of the same compound?
**A.** 2.46%

**Q.** What about the viability, T/C (second compound 3.16 µM, first compound 0.03 µM) of the same compound?
**A.** 1.83%

**Q.** And the viability, T/C (second compound 3.16 µM, first compound 0.0949 µM)?
**A.** 2.59%

**Q.** What about the viability, T/C (second compound 3.16 µM, first compound 0.3 µM) of the same compound?
**A.** 2.46%

**Q.** What about the viability, T/C (second compound 10 µM, first compound 0.000949 µM) of the same compound?
**A.** 15.8%

**Q.** What about the viability, T/C (second compound 10 µM, first compound 0.003 µM) of the same compound?
**A.** 2.15%

**Q.** What about the viability, T/C (second compound 10 µM, first compound 0.00949 µM) of the same compound?
**A.** 2.26%

**Q.** What about the viability, T/C (second compound 10 µM, first compound 0.03 µM) of the same compound?
**A.** 2.65%

**Q.** And the viability, T/C (second compound 10 µM, first compound 0.0949 µM)?
**A.** 2.46%

**Q.** And the viability, T/C (second compound 10 µM, first compound 0.3 µM)?
**A.** 3.06%
